The NIST ThermoML archive (doi:10.1021/je050514j)
Numbers after ± are expanded uncertainties.

Tests used:
[1] = xn = mol fraction of the nth substance listed; details: 313.15 K, Fluid (supercritical or subcritical phases), x1 = 1
[2] = refractive index (Na D-line) (dimensionless); details: 298.15 K; 101.33 kPa; Liquid; Standard Abbe refractometry
[3] = 313.15 K, 1000 kPa, Fluid (supercritical or subcritical phases)
[4] = 313.15 K, 2000 kPa, Fluid (supercritical or subcritical phases)
[5] = 313.15 K, 3000 kPa, Fluid (supercritical or subcritical phases)
[6] = 313.15 K, 4000 kPa, Fluid (supercritical or subcritical phases)
[7] = 313.15 K, 5000 kPa, Fluid (supercritical or subcritical phases)
[8] = 313.15 K, 6000 kPa, Fluid (supercritical or subcritical phases)
[9] = 313.15 K, 7000 kPa, Fluid (supercritical or subcritical phases)
[10] = 313.15 K, 8000 kPa, Fluid (supercritical or subcritical phases)
[11] = 313.15 K, 9000 kPa, Fluid (supercritical or subcritical phases)
[12] = 313.15 K, 10000 kPa, Fluid (supercritical or subcritical phases)

Row | SMILES | mass density [3] [kg/m3] | mass density [4] [kg/m3] | mass density [5] [kg/m3] | mass density [6] [kg/m3] | mass density [7] [kg/m3] | mass density [8] [kg/m3] | mass density [9] [kg/m3] | mass density [10] [kg/m3] | mass density [11] [kg/m3] | mass density [12] [kg/m3] | other results
1 | O=C=O [carbon dioxide] | 17.8 ± 0.2 | 37.3 ± 0.2 | 58.6 ± 0.3 | 83.4 ± 0.4 | 112.5 ± 0.5 | 148.7 ± 0.8 | 197.5 ± 1.2 | 276.7 ± 2.7 | 482.6 ± 3.9 | 627.3 ± 3.5 | 
2 | O=C=O [carbon dioxide] + CCOC(C)=O |  |  |  |  |  |  |  |  |  |  | mass density ([1]; 1000 kPa): 17.8 ± 0.2 kg/m3; mass density ([1]; 2000 kPa): 37.3 ± 0.2 kg/m3; mass density ([1]; 3000 kPa): 58.6 ± 0.3 kg/m3; mass density ([1]; 4000 kPa): 83.4 ± 0.4 kg/m3; mass density ([1]; 5000 kPa): 112.5 ± 0.5 kg/m3; mass density ([1]; 6000 kPa): 148.7 ± 0.8 kg/m3; mass density ([1]; 7000 kPa): 197.5 ± 1.2 kg/m3; mass density ([1]; 8000 kPa): 276.7 ± 2.7 kg/m3; mass density ([1]; 9000 kPa): 482.6 ± 3.9 kg/m3; mass density ([1]; 10000 kPa): 627.3 ± 3.5 kg/m3
3 | CCOC(C)=O [ethyl acetate] | 876.9 ± 0.4 | 878 ± 0.4 | 878.9 ± 0.4 | 880 ± 0.4 | 881 ± 0.4 | 881.9 ± 0.4 | 882.9 ± 0.5 | 883.9 ± 0.5 | 884.9 ± 0.5 | 885.9 ± 0.5 | mass density (298.15 K, 101.33 kPa, Liquid): 894.4 ± 0.3 kg/m3; Normal boiling temperature (Liquid, ebulliometry): 77.06 ± 0.05 °C; refractive index [2]: 1.3702 ± 0.3
